Experimental findings from ChEMBL document CHEMBL3639079, “Hydroxamic acid derivative” (2015) are described below.

Broadly, the IC50 is the concentration at which inhibition is half-maximal.

For this assay, the target named is T1, UDP-3-O-acyl-N-acetylglucosamine deacetylase (Pseudomonas aeruginosa (strain ATCC 15692 / PAO1 / 1C / PRS 101 / LMG12228), UniProt P47205).
T1 sequence (P47205 whole entry): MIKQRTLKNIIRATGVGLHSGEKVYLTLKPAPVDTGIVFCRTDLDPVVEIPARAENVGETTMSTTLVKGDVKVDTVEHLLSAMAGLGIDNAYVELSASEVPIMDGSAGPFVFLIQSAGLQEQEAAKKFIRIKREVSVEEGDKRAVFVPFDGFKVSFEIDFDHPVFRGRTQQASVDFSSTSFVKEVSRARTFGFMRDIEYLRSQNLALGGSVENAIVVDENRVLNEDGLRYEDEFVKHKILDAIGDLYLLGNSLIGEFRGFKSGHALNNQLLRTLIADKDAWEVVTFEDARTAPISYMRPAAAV
Description: The reaction was performed in 40 mmol/L of Hepes buffer solution (pH 8.0) supplemented with 0.02% Bridge 35 and 80 µmol/L of dithiothreitol. To terminate the reaction, 0.2 mol/L of borax was added to the reaction mixture.

Regarding `CNC(=O)C(C(=O)NO)N(C)C(=O)c1ccc(-c2ccc(OCCCN3CCOCC3)cc2)cc1` (stereo unspecified), half-maximal inhibition (IC50) was put at 6.7 nM.
